Read-outs that look alike come from different tables or passages of the source.
Assays:
EGF receptor = biological target: T1, EGF receptor (Homo sapiens, UniProt P00533); assay: Tyrosine kinase inhibitory activity (partially purified EGF receptor from A431 cell membrane fraction, RR-SRC peptide substrate); assay type: biochemical; conditions: partially purified EGF receptor from A431 cells, 100 ng EGF, 10 μM γ-32P-ATP, 30 minutes under ice-cooling
T1 construct: The cell membrane fraction, a partially purified EGF receptor, was used as an enzyme source; endogenous in cells; host or cells: A431 (human epidermoid carcinoma), cell membrane fraction
T1 sequence (P00533 25-1210): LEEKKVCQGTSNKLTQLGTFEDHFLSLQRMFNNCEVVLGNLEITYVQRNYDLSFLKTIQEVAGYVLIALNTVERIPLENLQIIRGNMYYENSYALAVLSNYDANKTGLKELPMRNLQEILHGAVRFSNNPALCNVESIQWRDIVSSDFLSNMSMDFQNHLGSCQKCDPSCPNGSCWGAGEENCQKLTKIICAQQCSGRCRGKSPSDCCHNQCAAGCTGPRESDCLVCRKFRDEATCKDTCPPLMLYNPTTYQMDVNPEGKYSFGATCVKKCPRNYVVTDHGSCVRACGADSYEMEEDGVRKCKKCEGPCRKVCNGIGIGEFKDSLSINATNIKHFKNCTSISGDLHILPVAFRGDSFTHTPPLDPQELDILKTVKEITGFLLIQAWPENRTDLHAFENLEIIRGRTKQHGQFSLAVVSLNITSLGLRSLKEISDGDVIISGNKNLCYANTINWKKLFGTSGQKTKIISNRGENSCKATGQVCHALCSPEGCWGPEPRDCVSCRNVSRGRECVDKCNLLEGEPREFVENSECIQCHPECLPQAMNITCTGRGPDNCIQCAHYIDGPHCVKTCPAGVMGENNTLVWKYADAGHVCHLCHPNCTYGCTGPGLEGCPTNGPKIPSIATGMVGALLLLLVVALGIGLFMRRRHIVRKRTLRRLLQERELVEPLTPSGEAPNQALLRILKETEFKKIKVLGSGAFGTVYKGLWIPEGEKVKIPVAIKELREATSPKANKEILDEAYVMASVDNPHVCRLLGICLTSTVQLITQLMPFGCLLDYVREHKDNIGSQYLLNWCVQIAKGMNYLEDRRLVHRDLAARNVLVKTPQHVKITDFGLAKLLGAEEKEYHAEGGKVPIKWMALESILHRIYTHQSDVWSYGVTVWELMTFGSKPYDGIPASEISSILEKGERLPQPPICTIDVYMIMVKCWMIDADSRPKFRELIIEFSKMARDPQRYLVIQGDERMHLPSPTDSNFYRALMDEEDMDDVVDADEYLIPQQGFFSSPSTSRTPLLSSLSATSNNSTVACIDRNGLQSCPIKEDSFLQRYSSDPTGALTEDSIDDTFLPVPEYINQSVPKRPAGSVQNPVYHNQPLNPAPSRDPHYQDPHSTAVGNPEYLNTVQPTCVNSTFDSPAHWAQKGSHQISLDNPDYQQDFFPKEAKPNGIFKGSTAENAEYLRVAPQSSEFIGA
Procedure: (§1) The compounds of the invention were evaluated their tyrosine kinase inhibitory activities with partially purified EGF (epidermal cell growth factor) receptor preparation and cell growth inhibitory activity with human cancer cells.
Tyrosine Kinase Inhibitory Activity
Tyrosine kinase inhibitory activities of the compounds of the invention were determined as the inhibitory activities of the compounds added into the tyrosine kinase activity assay system.
The method employed is detailed below.
A431 cells were cultured in Dulbecco's modified Eagles medium (DMEM) containing 10% fetal calf serum (FCS) at 37° C. under 5% CO2 atmosphere. The cultured cells were homogenated in a solution containing 10 mM N-2-hydroxyethylpiperazino-N'-2-ethane sulfonate buffer (pH 7.4), 0.25M sucrose, and 0.1 mM EDTA, and centrifuged at 3000 xg for 5 minutes. The supernatant was then centrifuged at 10000 xg for 30 minutes to obtain A431 cell membrane fraction. The cell membrane fraction, a partially purified EGF receptor, was used as an enzyme source. A test compound dissolved in dimethylsulfoxide (DMSO) was added to a reaction mixture containing 15 mM Hepes buffer (pH 7.7), 2 mM MnCl2, 10 μM ZnSO4, 50 μM Na3 VO4 and the partially purified EGF receptor preparation (10-15 μg). […] The mixture was allowed to react under […] for 30 minutes, and the reaction was stopped by addition of 10 mg/ml bovine serum albumin and 20% trichloroacetic acid. The reaction mixture was left to stand under ice-cooling for 30 minutes. The mixture was centrifuged at 5000 xg for two minutes, and an aliquot of the supernatant was adsorbed on P81 phosphocellulose filter. The filter was dipped in 30% aqueous acetic acid for 15 minutes for fixation and then washed with 15% acetic acid. The washing was repeated four times. The radioactivity of ^32 P retained on the phosphocellulose filter was counted with liquid scintillation counter.
Tyrosine kinase inhibitory activity (TKIA) was determined according to the following equation:
TKIA(%)={1-(B-C)/(A-C)}×100
The sympols "A", "B" and "C" represent the radioactivities determined in tyrosine kinase assays with test compounds, without a test compound, and without both a test compound and EGF, respectively.

KB cell = assay: Cancer cell growth inhibitory activity (KB cells, MTT); assay type: cell-based; conditions: Homo sapiens, 72 h, read-out: Inhibitory activity (IC50, μM) Cancer cell growth
Procedure: as §1
Cancer Cell Growth Inhibitory Activity
Accordingly, the KB cell was used to evaluate the effect of test compounds on the growth of cultured cancer cells.
KB cells were plated on a 96-well dish (2.5×10^3 cell/well) and cultured for 24 hours at 37° C. under 5% CO2 atmosphere in DMEM:F12 (1:1) medium containing 10% FCS, 50 μg/ml penicillin, and 50 μg/ml streptomycin. To the culture medium was added a test compound dissolved in DMSO (DMSO final concentration<0.1%), and the cells were cultured for three days under the same conditions. The test compound was exchanged every 24 hours together with the culture medium.
The amount of living cells were measured by calorimetric determination at wave lengths of 550 nm and 650 nm after developing colour by MTT reagent, in accordance with the method of Michael C.
Cancer cell growth inhibitory activity (CCGIA) was determined according to the following equation.
Simbols "a" and "b" represent the colorimetric values determined in the cancer cell growth assay with and without the test compounds, respectively.

[1] = KB cells, three days, 37° C., MTT

## COc1ccc(C(=O)/C=C/C(N)=O)cc1OC [Compound 2]
EGF receptor
  IC50: 0.32 µM
KB cell; KB
  IC50: 0.92 µM

## COc1ccc(C(=O)/C=C/C(=O)NCc2ccccc2)cc1OC [Compound 19]
EGF receptor
  IC50: 0.79 µM
KB cell; KB
  IC50: 0.97 µM

## COc1ccc(C(=O)/C=C/C(=O)NC2CCCCC2)cc1OC [Compound 45]
EGF receptor
  IC50: 1 µM
KB cell; KB
  IC50: 0.22 µM

## COc1ccc(C(=O)/C=C/C(=O)Nc2ccccc2)cc1 [Compound 58]
EGF receptor
  IC50: 2.2 µM
KB cell; KB
  IC50: 0.34 µM

## COc1ccc(C(=O)/C=C/C(=O)Nc2ccccc2)cc1OC [Compound 59]
EGF receptor
  IC50: 0.54 µM
KB cell; KB
  IC50: 0.45 µM

## O=C(/C=C/C(=O)c1ccc(O)c(O)c1)Nc1ccccc1 [Compound 60]
EGF receptor
  IC50: 1 µM
KB cell; KB
  IC50: 1.85 µM

## COc1cc(C(=O)/C=C/C(=O)Nc2ccccc2)ccc1O [Compound 61]
EGF receptor
  IC50: 1.5 µM
KB cell; [1]
  IC50: 2 µM

## COc1cc(C(=O)/C=C/C(=O)Nc2ccccc2)ccc1OC(F)F [Compound 64]
EGF receptor
  IC50: 1.5 µM
KB cell; KB
  IC50: 1.1 µM

## COc1cc(C(=O)/C=C/C(=O)Nc2ccccc2)ccc1OCc1ccccc1 [Compound 67]
EGF receptor
  IC50: 13 µM
KB cell; KB
  IC50: 0.58 µM

## COc1ccc(C(=O)/C=C/C(=O)Nc2ccccc2Cl)cc1OC [Compound 71]
EGF receptor
  IC50: 1.2 µM
KB cell; KB
  IC50: 1.2 µM

## COc1ccc(C(=O)/C=C/C(=O)Nc2cccc(Cl)c2)cc1OC [Compound 74]
EGF receptor
  IC50: 0.76 µM
KB cell; [1]
  IC50: 0.7 µM

## O=C(/C=C/C(=O)c1ccc(O)c(O)c1)Nc1cccc(Cl)c1 [Compound 75]
EGF receptor
  IC50: 4.3 µM
KB cell; KB
  IC50: 1.25 µM

## COc1ccc(C(=O)/C=C/C(=O)Nc2cccc(C)c2)cc1OC [Compound 83]
EGF receptor
  IC50: 0.81 µM
KB cell; KB
  IC50: 0.95 µM

## COc1ccc(C(=O)/C=C/C(=O)NC(=O)c2ccccc2)cc1OC [Compound 110]
EGF receptor
  IC50: 0.91 µM
KB cell; KB
  IC50: 11.5 µM
